According to article PMC8450341 (Frontiers in Physiology, 2021):
Entries after “also recorded” stand apart in the source; their conditions may differ.

Experiments:
[1] = test system: normoxic control calves; assay: Hemodynamics by right heart catheterization, normoxic calves; assay type: in vivo, bovine calf
Excerpt: (§1) The bovine calf hypoxia model of PH previously reported ([Stenmark et al., 1987]; [Lemler et al., 2000]; [Bartels et al., 2016]) consistently produces significant pulmonary hypertension (mean PAP > 100 mmHg) and subsequent tissue changes on post-mortem examination ([Stenmark et al., 1987]). Animals display blood gas PaO2 and PaCO2 values consistent to severe hypoxia and PH ([Stenmark et al., 1987]; [Lemler et al., 2000]). Male Holstein dairy calves at 7 days of age (45–50 kg) were sourced from a local dairy farm. This study utilized a case comparison design. […] Hypoxic calves (Groups 1 and 2) were exposed to hypobaric hypoxia at simulated elevation of 10,000 feet for 48–72 h to allow acclimation then exposed to hypobaric hypoxia at the study condition of 15,000 feet simulated elevation (PB = 430 mmHg, Hypo-Hyperbaric Chamber Facility, Colorado State University Department of Physiology). The standard exposure interval was 14 days at this elevation. Control normoxic calves remained at ambient Fort Collins pressure (4,950 feet PB = 630 mmHg).
(§2) This dosing regimen was selected to minimize adverse effects based on guidelines for human pediatric patients (Lia Gore MD, Center for Cancer and Blood Disorders, Children’s Hospital Colorado, personal communication.) Group 2 calves received no drug treatment. At this age, the calf digestive system has not matured and the abomasum functions as the sole stomach similar to humans.
(§3) Standard measurements of PAP and cardiac output were performed by right heart catheterization concurrent with the final echo in both the two normoxic and two hypoxic calves on study day 14 as described previously ([Stenmark et al., 1987]; [Lemler et al., 2000]).
(§4) Data were obtained from right heart catheterization as described in Materials and Methods. Standard units: Pressure, mm Hg; Cardiac output, L/min; PA, pulmonary artery.

[2] = test system: brain natriuretic peptide (BNP) and skeletal muscle alpha-actin mRNAs; assay: Real-time PCR of genes in RV hypertrophic remodeling; assay type: in vivo, bovine calf
Procedure: At the conclusion of the study period, calves were deeply anesthetized and euthanized. Tissue samples from right ventricle free wall and distal lung parenchyma were snap frozen in liquid nitrogen for laboratory analysis. RNA isolation and quantitative PCR were performed as described previously ([Frid et al., 2009]). mRNA abundance was quantitated relative to HPRT by the delta Ct method. The following primers were used (5′–3′). Fibronectin, Extracellular Domain A (ED-A Fn), Fwd:[…], Rev:[…]; Tenascin C (TnC), Fwd:G […], Rev:[…] TCCA; Osteopontin (SPPA), Fwd:[…] […]
(A) Immunoblotting HDAC abundance. RV and lung homogenates were prepared and HDAC abundance was determined by immunoblotting as described in section “Materials and Methods.” Additional untreated control and hypoxic animals were analyzed in parallel for comparison. Protein abundance was quantitated densitometrically relative to beta-actin. *p < 0.05 vs. control (unpaired two-tailed t-test). […] Abundances of indicated mRNAs were quantitated by real-time PCR as described in section “Materials and Methods.” Animals used in the present study were analyzed together with samples from additional untreated hypoxic and normoxic calves (n = 4 each) that were managed according to the same animal protocols described in section “Materials and Methods,” and studied around the same period of time. […]

[3] = set-up: method as in Fraczek et al., 2013; conditions: rats, oral; ref Fraczek et al., 2013; cited from earlier work
[4] = cited from earlier work
[5] = test system: calves with hypoxia-induced pulmonary hypertension; assay: Hemodynamics by right heart catheterization, hypoxic calf; assay type: in vivo, bovine calf
Excerpt: as §1, §2, §3, §4

[6] = test system: calves with hypoxia-induced pulmonary hypertension; assay: Echocardiography in neonatal calf model of hypoxia-induced PH; assay type: in vivo, bovine calf
Excerpt: as §1, §2
(§5) Echocardiography was utilized for non-invasive sequential assessment of cardiopulmonary function as described previously ([Lemler et al., 2000]; [Bartels et al., 2016]). […] The progression of pulmonary hypertension was evaluated by sequential echocardiography at the study condition (15,000 feet or normoxia) on study days 4, 8 and terminal day 14. Parasternal long and short axis recordings were obtained over 3–4 cardiac cycles, together with M-mode traces as indicated, using GE Echo PACS (General Electric, Chicago, IL, United States) or MicroDicom^1 software. Echocardiographic findings consistent with PH (abnormal RV size and function), or interventricular septum abnormalities including abnormal motion or flattening were evaluated ([Boon, 2011]). Septal motion and flattening were further quantitated by eccentricity index EI on short-axis views with EchoPACS. Tricuspid or mitral valve regurgitation was scored qualitatively as trace, mild, moderate or severe. Global RV function was assessed qualitatively. When RV images on long-axis included the entire chamber, RV fractional area change (FAC) was calculated with EchoPACS. RV fractional shortening was measured from M-mode recordings using MicroDicom. Calves were monitored following each non-terminal echo procedure for recovery including standing and interacting normally, and normal milk intake.

[7] = test system: normoxic control calves; assay: Echocardiography in normoxic vorinostat-treated control calves; assay type: in vivo, bovine calf
Excerpt: as §1, §2, §5

[8] = Normoxic vorinostat treated #1, study day 14
[9] = Normoxic vorinostat treated #2, study day 14
[10] = human adult dose of 400 mg daily, ref Iwamoto et al., 2013
[11] = Hypoxic vorinostat treated calf, study day 14
[12] = vorinostat-treated PH calf, day 14

For O=C(CCCCCCC(=O)Nc1ccccc1)NO [vorinostat, suberanilohydroxamic acid], the “Cardiac Output” value [1, 8] was 4.4 L/min, the “Mean PA Pressure” value [1, 8] was 25.1 mm Hg and the “PA Pulse Pressure” value [1, 8] was 17.6 mm Hg. For the same molecule, the “Systolic PA Pressure” value [1, 8] was 34.0 mm Hg, the “Cardiac Output” value [1, 9] was 5.1 L/min and the “Mean PA Pressure” value [1, 9] was 19.4 mm Hg. For the same molecule, the “PA Pulse Pressure” value [1, 9] was 14.5 mm Hg, the “Systolic PA Pressure” value [1, 9] was 27.1 mm Hg and the “effect on hemodynamic parameters in normoxic calves” value ([1]; compared to the authors' previous studies) was “did not affect”. For the same molecule, the “RV expression of BNP and skeletal muscle alpha-actin mRNAs” value ([2]; hypoxic calf, compared to calves with untreated PH) was “tended to decrease”, the “RV mRNA abundance (BNP, skeletal muscle alpha-actin) of control calves” value ([2]; normoxic control calves) was “not affected” and the bioavailability [3] was 2%. The AUC [4, 10] was 4,000–6,000 nM•h, the Cmax [4, 10] was 1000 to 1500 nM and the half-life ([4]; humans and other animal species, ref Mohamed et al., 2012, Fraczek et al., 2013, Iwamoto et al.) was “approximately 2 h”. For the same molecule, the “Bioavailability of oral vorinostat” value ([4]; humans, ref Fraczek et al., 2013) was 43%, the Tmax ([4]; post-fed humans, ref Iwamoto et al., 2013) was ~4 h and the “Cardiac Output” value [5, 11] was 5.5 L/min. The “Mean PA Pressure” value [5, 11] was 97.6 mm Hg, the “PA Pulse Pressure” value [5, 11] was 38.9 mm Hg and the “Systolic PA Pressure” value [5, 11] was 118.5 mm Hg. The “PA pulse pressure compared to untreated hypoxic calf” value [5, 12] was “tended toward reduced; also recorded: substantially reduced”, the “PA systolic pressure compared to untreated hypoxic calf” value [5, 12] was “tended toward reduced; also recorded: slightly reduced” and the “cardiac output compared to untreated hypoxic calf” value [5, 12] was “increased; also recorded: increasing”. For the same molecule, the “mean PA pressure compared to untreated hypoxic calf” value [5, 12] was “similar; also recorded: did not lower”, the “RV Fractional area change (FAC)” value ([6]; Hypoxic #1 calf, vorinostat first 5 days, Study Day 14) was 30.1% and the “septal distortion compared to untreated PH calf” value ([6]; vorinostat-treated PH calf, apical 4-chamber echo images) was “reduced septal distortion”. The RV fractional shortening ([6]; vorinostat-treated PH calf, day 14, M-mode) was 20%, the “degree of RV dysfunction compared to untreated hypoxic calf” value ([6]; vorinostat-treated hypoxic calf, days 4, 8, and 14) was “consistently less severe” and the “RV Fractional area change (FAC)” value ([7]; Normoxic #2 calf, vorinostat administration, Study Day 14) was 50.9%. The adverse cardiac effects ([7]; based on echo and hemodynamic criteria) was “no evidence for adverse cardiac effects”, the RV fractional shortening ([7]; control (normoxic vorinostat-treated) calf, day 14, M-mode) was 50% and the “echocardiographic evidence of negative impacts on cardiac function” value ([7]; control normoxic calves, vorinostat treatment) was “not associated with echocardiographic evidence of negative impacts on cardiac function”.
